pIC50: −log10 of the molar value. Where two headings read alike, the source gives them in different places.
Tested on: NLRP3
Assay: IL-1β secretion assay in PMA-differentiated, LPS/nigericin-stimulated THP-1 cells (384-well, ELISA read-out)
Format: cell-based, human
Details: Homo sapiens
Summary of the method: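 Secreted IL-1β quantified by capture ELISA from supernatants of PMA-differentiated THP-1 cells (30K per well). Sequence: LPS 25 ng/mL priming 2 h, compound 1 h, nigericin 2 h; dose-responses normalized between high (LPS plus 5 μM nigericin) and low (LPS alone) controls.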

[1] = THP-1, Table 4, IL-1β secretion, LPS/nigericin-stimulated THP-1 cells, read-out: IC50

SMILES	pIC50 [1]	pIC50 (THP-1)
N#Cc1cc(F)c(NC(=O)CN2CC3(CC3)c3cc(Br)ccc3C2=O)cn1 [Example 345, 2-(6-bromo-1-oxospiro[3H-isoquinoline-4,1′-cyclopropane]-2-yl)-N-(6-cyano-4-fluoropyridin-3-yl)acetamide]	4.82	
O=C(CN1CC2(CC2)c2cc(Br)ccc2C1=O)Nc1nccn2ncnc12 [Example 346, 2-(6-bromo-1-oxospiro[3H-isoquinoline-4,1′-cyclopropane]-2-yl)-N-([1,2,4]triazolo[1,5-a]pyrazin-8-yl)acetamide]	5.80	
CN1CCC(NC(=O)CN2CC3(CC3)c3cc(Br)ccc3C2=O)C1=O (centres unmarked) [Example 347, 2-(6-bromo-1-oxospiro[3H-isoquinoline-4,1′-cyclopropane]-2-yl)-N-(1-methyl-2-oxopyrrolidin-3-yl)acetamide]	4.67	
Cn1ccnc(NC(=O)CN2CC3(CC3)c3cc(Br)ccc3C2=O)c1=O [Example 348, 2-(6-bromo-1-oxospiro[3H-isoquinoline-4,1′-cyclopropane]-2-yl)-N-(4-methyl-3-oxopyrazin-2-yl)acetamide]	5.88	
O=C(CN1CC2(CC2)c2cc(Br)ccc2C1=O)Nc1nccc2cccnc12 [Example 349, 2-(6-bromo-1-oxospiro[3H-isoquinoline-4,1′-cyclopropane]-2-yl)-N-(1,7-naphthyridin-8-yl)acetamide]	5.32	
O=C(CN1CC2(CC2)c2cc(Br)ccc2C1=O)Nc1nccn2cnnc12 [Example 350, 2-(6-bromo-1-oxospiro[3H-isoquinoline-4,1′-cyclopropane]-2-yl)-N-([1,2,4]triazolo[4,3-a]pyrazin-8-yl)acetamide]	5.44	
O=C(CN1CC2(CC2)c2cc(Br)ccc2C1=O)Nc1nccn2ccnc12 [Example 351]	5.37	
O=C(CN1CC2(CC2)c2cc(Br)ccc2C1=O)Nc1nnc2ccccc2n1 [Example 352, N-(1,2,4-benzotriazin-3-yl)-2-(6-bromo-1-oxospiro[3H-isoquinoline-4,1′-cyclopropane]-2-yl)acetamide]	5.22	
CC1(C)CN=C(NC(=O)CN2CC3(CC3)c3cc(Br)ccc3C2=O)O1 [Example 353, 2-(6-bromo-1-oxospiro[3H-isoquinoline-4,1′-cyclopropane]-2-yl)-N-(5,5-dimethyl-4H-1,3-oxazol-2-yl)acetamide]	5.27	
O=C(CN1CC2(CC2)c2cc(C(F)(F)F)cc(Cl)c2C1=O)Nc1ncc(F)cn1 [Example 354, 2-[8-chloro-1-oxo-6-(trifluoromethyl)spiro[3H-isoquinoline-4,1′-cyclopropane]-2-yl]-N-(5-fluoropyrimidin-2-yl)acetamide]	4.62	
O=C(CN1CC2(CC2)c2cc(Br)ccc2C1=O)N[C@@H]1CCN(Cc2ccccc2)C1 [Example 355, N-[(3R)-1-benzylpyrrolidin-3-yl]-2-(6-bromo-1-oxospiro[3H-isoquinoline-4,1′-cyclopropane]-2-yl)acetamide]	5.30	
N#Cc1cccc2oc(NC(=O)CN3CC4(CC4)c4cc(Br)ccc4C3=O)nc12 [Example 356, 2-(6-bromo-1-oxospiro[3H-isoquinoline-4,1′-cyclopropane]-2-yl)-N-(4-cyano-1,3-benzoxazol-2-yl)acetamide]	5.64	
O=C(CN1CC2(CC2)c2cc(Br)ccc2C1=O)NC1CC(OCc2ccccc2)C1 (stereo not drawn) [Example 357, 2-(6-bromo-1-oxospiro[3H-isoquinoline-4,1′-cyclopropane]-2-yl)-N-(3-trans-phenylmethoxycyclobutyl)acetamide]	5.28	
O=C(CN1CC2(CC2)c2cc(Br)ccc2C1=O)Nc1nc2cc(C(F)(F)F)ccc2o1 [Example 358, 2-(6-bromo-1-oxospiro[3H-isoquinoline-4,1′-cyclopropane]-2-yl)-N-[5-(trifluoromethyl)-1,3-benzoxazol-2-yl]acetamide]	5.89	
O=C(CN1CC2(CC2)c2cc(Br)ccc2C1=O)Nc1ncc(C2CCCO2)cn1 (centres unmarked) [Example 359, 2-(6-bromo-1-oxospiro[3H-isoquinoline-4,1′-cyclopropane]-2-yl)-N-[5-(oxolan-2-yl)pyrimidin-2-yl]acetamide]	6.22	
CN1CCC[C@@H](NC(=O)CN2CC3(CC3)c3cc(Br)ccc3C2=O)C1 [Example 360, 2-(6-bromo-1-oxospiro[3H-isoquinoline-4,1′-cyclopropane]-2-yl)-N-[(3R)-1-methylpiperidin-3-yl]acetamide]	5.46	
O=C(CN1CC2(CC2)c2cc(Br)ccc2C1=O)Nc1nc2ccc(C(F)(F)F)cc2o1 [Example 361, 2-(6-bromo-1-oxospiro[3H-isoquinoline-4,1′-cyclopropane]-2-yl)-N-[6-(trifluoromethyl)-1,3-benzoxazol-2-yl]acetamide]	6.07	
O=C(CN1CC2(CC2)c2cc(Br)ccc2C1=O)Nc1cc2n(n1)CCOC2 [Example 362, 2-(6-bromo-1-oxospiro[3H-isoquinoline-4,1′-cyclopropane]-2-yl)-N-(6,7-dihydro-4H-pyrazolo[5,1-c][1,4]oxazin-2-yl)acetamide]	5.84	

SMILES	pIC50 [1]	pIC50 (THP-1)
O=C(CN1CC2(CC2)c2cc(Br)ccc2C1=O)Nc1nccc2nccn12 [Example 363, 2-(6-bromo-1-oxospiro[3H-isoquinoline-4,1′-cyclopropane]-2-yl)-N-imidazo[1,2-c]pyrimidin-5-ylacetamide]	5.18	
O=C(CN1CC2(CC2)c2cc(Br)ccc2C1=O)Nc1ncc(N2CCCC2)cn1 [Example 364, 2-(6-bromo-1-oxospiro[3H-isoquinoline-4,1′-cyclopropane]-2-yl)-N-(5-pyrrolidin-1-ylpyrimidin-2-yl)acetamide]	5.59	
O=C(CN1CC2(CC2)c2cc(Br)ccc2C1=O)N[C@@H]1CCCN(C2COC2)C1 [Example 365, 2-(6-bromo-1-oxospiro[3H-isoquinoline-4,1′-cyclopropane]-2-yl)-N-[(3R)-1-(oxetan-3-yl)piperidin-3-yl]acetamide]	5.67	
O=C(CN1CC2(CC2)c2cc(Br)ccc2C1=O)NC1CCN(CCC(F)(F)F)CC1 [Example 366, 2-(6-bromo-1-oxospiro[3H-isoquinoline-4,1′-cyclopropane]-2-yl)-N-[1-(3,3,3-trifluoropropyl)piperidin-4-yl]acetamide]	4.72	
O=C(CN1CC2(CC2)c2cc(Br)ccc2C1=O)NC1CCN(CC(F)F)CC1 [Example 367, 2-(6-bromo-1-oxospiro[3H-isoquinoline-4,1′-cyclopropane]-2-yl)-N-[1-(2,2-difluoroethyl)piperidin-4-yl]acetamide]	4.93	
Cc1cc(NC(=O)CN2CC3(CC3)c3cc(Br)ccc3C2=O)nc2ccnn12 [Example 368, 2-(6-bromo-1-oxospiro[3H-isoquinoline-4,1′-cyclopropane]-2-yl)-N-(7-methylpyrazolo[1,5-a]pyrimidin-5-yl)acetamide]	5.80	
O=C(CN1CC2(CC2)c2cc(Br)ccc2C1=O)NC1CCN(c2cccnc2)CC1 [Example 369, 2-(6-bromo-1-oxospiro[3H-isoquinoline-4,1′-cyclopropane]-2-yl)-N-(1-pyridin-3-ylpiperidin-4-yl)acetamide]	5.19	
CN1CCC(NC(=O)CN2CC3(CC3)c3cc(Br)ccc3C2=O)CC12CC2 (centres unmarked) [Example 370, 2-(6-bromo-1-oxospiro[3H-isoquinoline-4,1′-cyclopropane]-2-yl)-N-(4-methyl-4-azaspiro[2.5]octan-7-yl)acetamide]	5.22	
Cn1cnc(NC(=O)CN2CC3(CC3)c3cc(Br)ccc3C2=O)n1 [Example 371, 2-(6-bromo-1-oxospiro[3H-isoquinoline-4,1′-cyclopropane]-2-yl)-N-(1-methyl-1,2,4-triazol-3-yl)acetamide]	5.84	
O=C(CN1CC2(CC2)c2cc(Br)ccc2C1=O)NC1CN2CCC1CC2 (centres unmarked) [Example 372, N-(1-azabicyclo[2.2.2]octan-3-yl)-2-(6-bromo-1-oxospiro[3H-isoquinoline-4,1′-cyclopropane]-2-yl)acetamide]		4.65
O=C(CN1CC2(CC2)c2cc(Br)ccc2C1=O)Nc1nc2n(n1)CCCC2 [Example 373, 2-(6-bromo-1-oxospiro[3H-isoquinoline-4,1′-cyclopropane]-2-yl)-N-(5,6,7,8-tetrahydro-[1,2,4]triazolo[1,5-a]pyridin-2-yl)acetamide]	5.80	
O=C(CN1CC2(CC2)c2cc(Br)ccc2C1=O)Nc1ccn2ccnc2n1 [Example 374, 2-(6-bromo-1-oxospiro[3H-isoquinoline-4,1′-cyclopropane]-2-yl)-N-imidazo[1,2-a]pyrimidin-7-ylacetamide]	5.02	
O=C(CN1CC2(CC2)c2cc(Br)ccc2C1=O)NC1CCN(CC(F)(F)F)CC1 [Example 375, 2-(6-bromo-1-oxospiro[3H-isoquinoline-4,1′-cyclopropane]-2-yl)-N-[1-(2,2,2-trifluoroethyl)piperidin-4-yl]acetamide]	4.95	
Cc1nc(NC(=O)CN2CC3(CC3)c3cc(Br)ccc3C2=O)nn1C [Example 376, 2-(6-bromo-1-oxospiro[3H-isoquinoline-4,1′-cyclopropane]-2-yl)-N-(1,5-dimethyl-1,2,4-triazol-3-yl)acetamide]	5.74	
O=C(CN1CC2(CC2)c2cc(Br)ccc2C1=O)Nc1noc2ccccc12 [Example 377, N-(1,2-benzoxazol-3-yl)-2-(6-bromo-1-oxospiro[3H-isoquinoline-4,1′-cyclopropane]-2-yl)acetamide]	5.65	
CCOC(=O)N1CCC(NC(=O)CN2CC3(CC3)c3cc(Br)ccc3C2=O)CC1 [Example 378, ethyl 4-[[2-(6-bromo-1-oxospiro[3H-isoquinoline-4,1′-cyclopropane]-2-yl)acetyl]amino]piperidine-1-carboxylate]	5.30	
O=C(CN1CC2(CC2)c2cc(Br)ccc2C1=O)NC1CCN(c2ccccn2)CC1 [Example 379, 2-(6-bromo-1-oxospiro[3H-isoquinoline-4,1′-cyclopropane]-2-yl)-N-(1-pyridin-2-ylpiperidin-4-yl)acetamide]	5.05	
